According to PMC9138959 (Biomedicines, 2022):
Where “and” joins values, the source holds several entries; their conditions need not be identical. Equal entries are not always repeated. Entries after “also recorded” stand apart in the source; their conditions may differ.

Experiments:
[1] = system: SARS-CoV-2; assay: microbe, parasite or virus in culture; assay type: cell-based; conditions: Severe acute respiratory syndrome coronavirus 2, Vero, 24 h; read-out: IC50, inhibition of SARS-CoV-2 infection
[2] = target: SARS-CoV-2 Mpro (Severe acute respiratory syndrome coronavirus 2, UniProt P0DTD1); assay: SARS-CoV-2 Mpro activity inhibition assay (FRET peptide); assay type: biochemical; conditions: MBP-tagged Mpro, FRET peptide substrate, 30 min
[3] = target: SARS-CoV-2 PLpro (Severe acute respiratory syndrome coronavirus 2, UniProt P0DTD1); assay: SARS-CoV-2 PLpro activity inhibition assay; assay type: biochemical; conditions: 25 μM compound
Experimental: The fluorescence intensity was measured at 360 nm/460 nm using a Synergy H1 microplate reader (Bio-Tek). GRL061 (BPS Bioscience) was used as a positive control.
To elucidate the mode of action of PGG and PAC, the effect of those compounds on the activity of the viral protease, Mpro, was examined using SARS-CoV-2 Mpro activity assay kits.

[4] = target: T1, SARS-CoV-2 RdRp (Severe acute respiratory syndrome coronavirus 2, UniProt P0DTD1); assay: cell-based; conditions: HEK293T cells, 18 h treatment; read-out: IC50, SARS-CoV-2 RdRp activity (NLuc/FLuc)
T1 construct: the RdRp expression plasmid, pCI-SARS-CoV-2 nsp12-N; expressed in transfected cells; host or cells: HEK293T

[5] = system: SARS-CoV; assay: microbe, parasite or virus in culture; assay type: cell-based; conditions: Severe acute respiratory syndrome coronavirus, Vero, 24 h, read-out: IC50, inhibition of SARS-CoV infection
[6] = system: MERS-CoV; assay: microbe, parasite or virus in culture; assay type: cell-based; conditions: Middle East respiratory syndrome-related coronavirus, Vero, 24 h, read-out: IC50, inhibition of MERS-CoV infection
[7] = system: HEK293T cells
[8] = in vitro; conditions: African green monkey

| SMILES | IC50 [1] | IC50 [2] | Inhibition of SARS-CoV-2 PLpro activity [3] | IC50 [4] | IC50 [5] | IC50 [6] | Cytotoxicity or inhibition of host transcription (FLuc internal control levels) [7] | CC50 [8] |
| --- | --- | --- | --- | --- | --- | --- | --- | --- |
| Oc1cc(O)c2c(c1)OC(c1ccc(O)c(O)c1)C(OC1(c3ccc(O)c(O)c3)Oc3cc(O)cc(O)c3C(O)C1O)C2 (centres unmarked) [PAC, proanthocyanidin] | 25.9 ± 0.81 µM | 25 to 26 µM and 26 µM | did not inhibit; also recorded: did not affect | 21 ± 1.2 µM | 15.2 ± 0.28 µM | 4.95 ± 0.181 µM | without cytotoxicity or the inhibition of host transcription | > 50 µM |
| O=C(OC[C@H]1O[C@@H](OC(=O)c2cc(O)c(O)c(O)c2)[C@H](OC(=O)c2cc(O)c(O)c(O)c2)[C@@H](OC(=O)c2cc(O)c(O)c(O)c2)[C@@H]1OC(=O)c1cc(O)c(O)c(O)c1)c1cc(O)c(O)c(O)c1 [PGG, 1,2,3,4,6-penta-O-galloyl-beta-D-glucose] | 15 ± 0.75 µM | – | did not inhibit; also recorded: did not affect | – | 15.7 ± 1.02 µM | 3.47 ± 0.231 µM | without cytotoxicity or the inhibition of host transcription | > 50 µM |
